Results reported in patent publication US20080182894A1, “METHOD OF PROVIDING PREPARATION FOR TOPICAL APPLICATION AND SUPPLEMENT MEETING CLIENT'S NEEDS” (AJINOMOTO CO., INC., priority 2005, published 2008).
“Also recorded” adds a separate entry of the source.

How the values were obtained:
[1] = tested on: hairless mouse (HR-1, female); test: Vasodilating (blood circulation improving) effect, red spot on auricles, visual evaluation; assay type: in vivo; conditions: for blood circulation promoting action, intensity and sustainability (conclusion): auricle red spot test, 1 wt % and 5 wt %
Excerpt: The vasodilating effects (blood circulation improving effect) of capsiate and capsaicin were compared using auricles of a hairless mouse. A sample was applied to the right ear of a hairless mouse (HR-1, female) and a control was applied to the left ear thereof, and the development of a red spot was visually evaluated. (1) Capsiate (1 wt % or 5 wt % dissolved in liquid paraffin) (2) Capsaicin (1 wt % or 5 wt % dispersed in liquid paraffin Liquid paraffin

[2] = Dissolution of sample in liquid paraffin; assay type: physicochemical; conditions: 1 wt % and 5 wt %; evaluated in a dispersion state
[3] = tested on: hairless mouse (HR-1, female); test: Increase in topical concentration of systemically administered trypan blue dye by topical capsiate; assay type: in vivo
Procedure: A hairless mouse (HR-1, female) was intraperitoneally injected with a trypan blue solution (0.4%, 300 μl). After injection, 100 μl of 5% capsiate (dissolved in an ethanol solution) was applied uniformly using a pipet chip to the right side of the back. As a control, 100 μl of ethanol alone was uniformly applied to the left side of the back by a similar method.

hairless mouse [4] = test: Inhibition of UVB-induced pigmentation: oral tocopherol acetate plus transdermal dihydrocapsiate; assay type: in vivo
Procedure: The synergistic effect of tocopherol acetate and dihydrocapsiate was confirmed using a pigmentation induction mouse based on the inhibition of pigmentation induced by ultraviolet beam (UVB).
(1) Before the start of ultraviolet beam (UVB) irradiation, tocopherol acetate (200 μl) as administered orally once a day for 3 days to a hairless mouse (12-week-old, female) using a gavage needle.
(2) After the 3-day oral administration in (1), the hairless mouse was irradiated with UVB (80-90 mJ/cm^2).
(3) Thirty minutes after the irradiation in (2), tocopherol acetate (200 μl) was administered orally to the hairless mouse using a gavage needle. Five minutes after the oral administration, 28 μl of 5 wt % dihydrocapsiate dissolved in 50 wt % ethyl alcohol was applied to the hairless mouse on the left side of the back.
Treatments (2) and (3) were performed 3 times a week (Monday, Wednesday and Friday) and treatment (3) alone was performed twice a week (Tuesday and Thursday). The skin on the back of the mouse after about 3 weeks from the start of the UV irradiation was visually evaluated.

hairless mouse [5] = test: Inhibition of UVB-induced pigmentation: oral cystine plus transdermal dihydrocapsiate; assay type: in vivo; conditions: 5% dihydrocapsiate (50% aqueous ethanol) applied plus oral cystine 50 mg in 150 μl 0.5% CMC; about 3 and about 4 weeks; vs 50% aqueous ethanol application group
Procedure: An experiment similar to that in Example 2 was performed using cystine as an oral agent. In particular, 50 mg of cystine was dissolved in 150 μl of a 0.5% aqueous CMC (carboxymethylcellulose) solution and used as an oral administration sample, and 5% dihydrocapsiate (50% aqueous ethanol solution) was used as a dermal application sample. Ultraviolet beam (UVB) was utilized as an irradiation source without preliminary administration, and the synergistic effect afforded by the oral administration agent and the blood circulation promoter on the blackness suppressive effect on the pigmentation of the back of a mouse was confirmed according to the experiment schedule similar to that in Example 2.
Suppression of pigmentation induction in the dihydrocapsiate application group was visually evaluated.
Visual evaluation criteria • 0: No pigmentation • 1: Spots of pale pigmentation found in a part • 2: Spots of pale pigmentation found on the entire back • 3: Spots of pigmentation found on the entire back (partly deep pigmentation was found) • 4: Spots of deep pigmentation found on the entire back • 5: Deep pigmentation found on the entire back

[6] = 1 wt % in liquid paraffin, right ear, control liquid paraffin on left ear
[7] = 5 wt % in liquid paraffin, from 30 min onward after application

Compound: COc1cc(CNC(=O)CCCC/C=C/C(C)C)ccc1O [capsaicin, reference compound]
- development of a red spot on auricle, visual evaluation [1, 6]: presence of a red spot
- development of a red spot on auricle, visual evaluation [1, 7]: clear red spot
- blood circulation promoting action, intensity and sustainability (conclusion) [1]: strong blood circulation promoting action and long sustainability
- time over which red spot maintained the initial state ([1]; capsaicin, even at 1 wt %, auricle): > 2 h
- dissolution in liquid paraffin [2]: did not dissolve completely

Compound: COc1cc(COC(=O)CCCC/C=C/C(C)C)ccc1O [capsiate]
- pigmentation of blue dye in the vicinity of the auricle ([3]; 5% capsiate in ethanol applied to auricle, trypan blue i.p., 30-60 minutes after application): pigmentation of a blue dye was observed
- skin pigmentation (infiltration) of blue dye at application site ([3]; 100 μl of 5% capsiate in ethanol on back, trypan blue i.p., 30 minutes after application): clear skin pigmentation (infiltration) of the blue dye was observed
- skin pigmentation of blue dye derived from trypan blue at application site ([3]; 100 μl of 5% capsiate in ethanol on right side of back vs ethanol alone on left, trypan blue 0.4% 300 μl i.p., 15-20 minutes after application): confirmed only on the capsiate application side
- development of a red spot on auricle, visual evaluation [1, 6]: no development of a red spot
- development of a red spot on auricle, visual evaluation [1, 7]: clear red spot
- blood circulation promoting action, intensity and sustainability (conclusion) [1]: mild sustainability and intensity
- time until developed red spot completely disappeared ([1]; capsiate in liquid paraffin, auricle): about 2 hr

Compound: COc1cc(COC(=O)CCCCCCC(C)C)ccc1O [dihydrocapsiate]
- UVB-induced pigmentation of back skin, visual evaluation, combined use (hairless mouse [4]; 28 μl of 5 wt % dihydrocapsiate on left side of back plus oral tocopherol acetate 200 μl, UVB 80-90 mJ/cm^2, about 3 weeks, vs non-application right side): less pigmentation; also recorded: can suppress induction of pigmentation by UVB
- UVB-induced pigmentation of back skin, visual evaluation, dihydrocapsiate alone (hairless mouse [4]; dihydrocapsiate applied alone, no oral tocopherol acetate, UVB irradiation): UVB irradiation induced pigmentation in the application site; also recorded: failed to suppress induction of pigmentation
- pigmentation suppressive effect after treatment is ceased (hairless mouse [4]; tocopherol acetate administration and dihydrocapsiate application ceased, UVB irradiation continued, dihydrocapsiate application site): disappears and induction of pigmentation begins
- UVB-induced pigmentation induction, visual evaluation (score 0-5, FIG. 9) (hairless mouse [5]): clearly suppressed

Compound: CC(=O)Oc1c(C)c(C)c2c(c1C)CCC(C)(CCC[C@H](C)CCC[C@H](C)CCCC(C)C)O2 (some centres unmarked) [tocopherol acetate, reference compound]
- UVB-induced pigmentation of back skin, visual evaluation, tocopherol only control (hairless mouse [4]; oral tocopherol acetate 200 μl, solvent (50 wt % ethyl alcohol) applied instead of dihydrocapsiate, right vs left side of back): a clear difference was not observed; also recorded: failed to suppress induction of pigmentation
